Reference: patent publication US20180344726A1, “ABUSE RESISTANT TRANSDERMAL DELIVERY DEVICES AND COMPOSITIONS COMPRISING AN OPIOID AGONIST AND A NON-TRANSDERMALLY DELIVERED N-OXIDE DERIVATIVE OF AN OPIOID ANTAGONIST FOR THE TREATMENT OF PAIN” (priority 2015, published 2018)

Key:
[1] = Stability of prototype patches over 6 days at 60° C.; type: physicochemical
Description: (§1) Naloxone N-oxide was incorporated into a prototype transdermal patch along with an opioid agonist. […] Batches of patches were prepared by weighing the appropriate amounts of the opioid agonist, Naloxone N-oxide and dry patch matrix of poly(meth)acrylate and dissolving in ethylacetate. The matrix solvent system was added and stirred for 30 minutes on a magnetic stirrer to yield a homogenous mixture. After mixing, the drug/polymer mixture was hand cast onto a release liner, Loparex Prime Liner FL 2000. Casting was carried out with a casting knife of variable width to achieve a target dry area weight matrix of 55 g/m^2. The cast was then dried at room temperature for 10 minutes, transferred to a convection oven and dried at 70° C. for 15 minutes and at 100° C. for 5 minutes. Finally the dried casts were hand-laminated with an occlusive backing, Scotchpak 9738, and patches were cut out of the laminate with 0.82 cm^2 cutting dies for skin permeation and 5 cm^2 for stability experiments.
The stability of each of the patches over 6 days at 60° C. was also tested.

[2] = In vitro skin permeation from prototype transdermal patches (Franz cell); type: in vitro ADME, human; settings: patches with naloxone N-oxide:opioid agonist 1:1, 3:1 or 5:1 by weight
Description: as §1
The in vitro skin permeation of opioid agonist from each of the patches was tested using a Franz cell as described above.

C=CC[N+]1([O-])CC[C@]23c4c5ccc(O)c4O[C@H]2C(=O)CC[C@@]3(O)[C@H]1C5 (some centres unmarked) [Naloxone N-oxide]
Impact on the stability of the patch [1]: does not impact on the stability of the patch | N-oxide permeated through the skin from patch [2]: no detectable levels
